Results on 6 compounds are retold here after patent US20060127505A1, “Anti-inflammatory formulations” (priority 2002, published 2006).

The test system of experiment [1] is CD3+CD25+ cells in human PBMC. Nature of the experiment: T lymphocyte activation (CD3+CD25+) in PHA-stimulated PBMC of asthma patients (Example 6). The experiment is classed as cell-based. As to conditions: PHA 50 μg/ml, 24 hours. On the procedure: Experiments were carried out to determine whether formulations based on the platelet activating factor receptor (PAFR) antagonist and free radical scavenger Ginkgolide B (GB) in combination with the antioxidant carotenoid astaxanthin (ASX) suppress T cell activation in the same dose range as two commonly-used antihistamines: cetirizine dihydrochloride (CTZ/Zyrtec) and azelastine ([…]). […] Results are reported as stimulation indices (SI) of % CD3+CD25+ cells in cultures treated with PHA alone to % CD3+CD25+ cells in each drug-supplemented culture. […] Subjects for this study included 12 patients diagnosed with atopic asthma, 7 male and 5 female, ranging in age from 21 to 40 years (mean 28±1.8 years). Disease duration ranged from 2 to 12 years. Atopy was defined on the basis of one or more positive skin prick tests to a range of 20 allergens. None of the patients had received systemic therapy for at least 6 weeks prior to blood collection. The mean serum IgE was 335 (170-480) IU/ml. Venous blood for each subject was collected in polyethylene tubes containing EDTA during a one hour morning time interval. PBMC were separated by Ficoll-paque (Pharmacia, Uppsala, Sweden) density gradient centrifugation. Cells were washed and suspended in RPMI 1640 medium (Gibco BRL, Gaithersburg, Md.) at density of 1×10^6 cells/ml. PBMC were stimulated with 50 μg/ml Phytohemaglutinin (PHA) (Sigma Immunopharmaceuticals, St. Lous Mo.), or PHA plus 10^-8-10^-5 M astaxanthin (Natural Alternatives International (NAI) Inc., San Marcos Calif.); or ginkgolide B 10^-8-10^-6 M (NAI San Marcos Calif.); or selected combinations of ASX plus GB. Comparison of ASX and GB effects on T cell activation were made with two other pharmacological agents with anti-asthmatic properties by treating cells with 10^-7-10^-4 M cetirizine dihydrochloride (Pfizer Pharmaceuticals, Norwich Conn.); or 10^-7-10^-4 M azalestine hydrochloride (Wallace Pharmaceuticals, Somerset N.J.), followed by evaluation of cultures for the same biological endpoints as ASX/GB-treated cells. Each reagent was added at the outset of a 24 hours culture period, followed by harvest of cellular fraction for immunophenotyping studies. […] Two-color Flow cytometry was conducted using a Coulter Epics XL automated flow cytometer (Coulter Scientific, Hialeah, Fla., USA). Isotypic controls for the monoclonal antibodies (mAb) used to detect antigens of interest were established for each cell preparation. Positive analysis regions for cells expressing specific surface markers were set against controls and specific binding of fluorophore-conjugated mAb was analyzed by cytofluorography according to standard methods recommended by the manufacturer. Lymphocyte subpopulations were identified by position on forward and side scatter plots and live-gated. Expression of each antigen was reported as percentage cells positive for a particular T cell subpopulation defined by expression of CD3 (T lymphocyte marker) plus CD25, plus or minus standard error. Statistical analysis was performed using an independent t-test. All statistical analyses were performed using the SPSS for Windows statistical package (Norusis/SPSS, Inc.). […] The capacity of formulations evaluated in this study to suppress immune activation was measured as a stimulation index (SI), defined as the ratio of […].

Experiment [2] relates to CD3+CD25+ T lymphocytes in human PBMC. Nature of the experiment: PHA induction of CD25+ on CD3+ T cells, PBMC from asthma patients (Example 5). The experiment is classed as cell-based. As to conditions: for SI CD25: PHA 50 μg/ml, 24 hours. On the procedure:
(§1) Experiments were carried out to determine whether the immunoregulatory capacity of two commonly-used H1-inhibitory antihistamines: cetirizine dihydrochloride (CTZ/Zyrtec) and azelastine ([…]) is potentiated by the platelet activating factor receptor (PAFR) antagonist and free radical scavenger Ginkgolide B (GB). […] Each drug was first evaluated independently over a 3-log dose range from 10^-8-10^-6 M.

The subject of experiment [3] is CD3+HLA-DR+ T lymphocytes in human PBMC. Nature of the experiment: PHA induction of HLA-DR+ on CD3+ T cells, PBMC from asthma patients (Example 5). The experiment is classed as cell-based. The note with it: for SI HLA-DR: PHA 50 μg/ml, 24 hours. On the procedure: as §1
Experiment [4] concerns the target PAF (Homo sapiens, UniProt P25105). The note with it: cited from earlier work.
The test system of experiment [5] is ovalbumin(OA)-induced asthma in guinea pigs. The experiment in a line: Ovalbumin-induced asthma in guinea pigs: inflammatory cells in BAL fluid. The experiment is classed as in vivo, guinea pig. As to conditions: components used separately: 10 mg/kg AX, 200 mg/kg vit C, 10 mg/kg GB. On the procedure:
The effect combinations of vitamin C, astaxanthin, and ginkolide on asthma-associated disease parameters ovalbumin(OA)-induced asthma in guinea pigs was evaluated. Twenty-four hours following OA challenge, animals are sacrificed and numbers of inflammatory cells (eosinophils, neutrophils, macrophages) are measured in bronchoalveolar lavage (BAL) fluid; and cAMP and cGMP concentrations in the lung tissue. The experiments were carried out as follows. Male Hartley guinea pigs (250-350 g) were sensitized by intramuscular injections of 0.35 ml of a 5% (W/V) ovalbumin (OA)/saline solution into each thigh on days 1 and 4. Guinea pigs were ready for asthmatic challenge after 25 days of ovalbumin injection. Asthmatic challenge was carried out with ovalbumin aerosol, and bronchoalveolar lavage (BAL) was done 24 hours later. The numbers of eosinophils, neutrophils, and macrophages in the BAL fluid were counted. Twenty-four hours after the aerosol OA challenge, guinea pigs were killed by cervical dislocation and exsanguinated by severing the axillary arteries. Lungs were lavaged with 50 ml of DulBecco's phosphate-buffered saline (aliquots of 10 ml), which were aspirated after gentle chest massage. BAL fluid was centrifuged at 2200 rpm (1100×g) for 10 min, supernatant was aspirated, and pellets were resuspended in 5 ml 0.25% NaCl to lyse residual erythrocytes. This dispersion was centrifuged at 2200 rpm (1100×g) for 10 min, supernatant was aspirated, and pellets were resuspended 5 ml 0.9% NaCl. Total cell counts were done by hemocytometry using trypan blue stain. Slides were prepared on a Shandon Cytospin 2 (Pittsburgh, Pa.) at 300 rpm for 5 min, fixed and stained. Differential cell counts were done using standard morphologic criteria to classify cells as eosinophils, neutrophils, or macrophages, and the results were expressed in cell numbers. The dose-responsive effect of AX, EGb761, and vitamin C administered independently for suppression of asthma-associated parameters in allergen-induced, asthmatic guinea pigs was determined. Ibuprophen (IB) was used as the positive control. Concentration of inflammatory cells in bronchoalveolar lavage (BAL) fluid and levels of cAMP and cGMP in lung tissue were measured in guinea pigs 24 hours following challenge with OV. Data is reported as mean±SD of measurements taken in 6 animals per dosage cohort. *p<0.05 compared to corresponding values of OV antigen-challenged, drug-free control group. The dose-responsive effect of AX, EGb761, and vitamin C administered in combination for suppression of asthma-associated parameters in allergen-induced, asthmatic guinea pigs was determined. The combination of these three components was given each day for each guinea pig as a “cocktail”. Concentration of inflammatory cells in bronchoalveolar lavage (BAL) fluid and levels of cAMP and cGMP in lung tissue were measured in guinea pigs 24 hours following challenge with OV. Data is reported as mean±SD of measurements taken in 6 animals per dosage cohort. *p<0.05 compared to corresponding values of OV antigen-challenged, drug-free control group.

Experiment [6] relates to CD3+HLA-DR+ lymphocytes in human PBMC. Nature of the experiment: PHA-mediated induction of CD3+HLA-DR+ lymphocytes in human PBMC (Example 8). The experiment is classed as cell-based. The note with it: PHA 50 μg/ml, 24 hours. On the procedure: (§2) Cells from 3-12 asthma patients were cultured 24 hours with 50 μg/ml PHA. PBMC evaluated by 2-color flow cytometry were gated for CD3+ and analyzed for CD3+CD25+ or CD3+HLA-DR+ as a percentage of the CD3+ population. Results are reported as stimulation indices (SI) calculated as the ratio of % CD3+CD25+ cells or % CD3+HLA-DR+ cells in fully-stimulated cultures to % CD3+CD25+ or % CD3+HLA-DR+ respectively in cells treated with PHA plus ASX, GB, or combinations thereof.

For experiment [7], the system named is TNF-α. The experiment in a line: TNF-α expression by PHA-stimulated human PBMC, ELISA of supernatant. The experiment is classed as cell-based. The note with it: PHA 50 μg/ml, 24 hours; 10^−4 M. On the procedure:
PBMC (2×10^6/ml) from 2 donors were stimulated with 50 μg/ml, PHA; or with astaxanthin (10^−6 M); or with the ginkgolide BN52021 (GB) (10^−4 M); or with a combination of astaxanthin (10^−6 M) plus GB (10^−4 M); or with media. Cells were cultured 24 hours at 37° C., 5% CO2 and analyzed by ELISA for supernatant concentration of TNF-α. Each data point is the mean of triplicate samples.
For orientation: An ELISA detects its analyte on a solid surface through an enzyme-linked reagent.

In experiment [8] the test system is CD3+CD25+ lymphocytes in human PBMC. The experiment in a line: PHA-mediated induction of CD3+CD25+ lymphocytes in human PBMC (Example 8). The experiment is classed as cell-based. The note with it: PHA 50 μg/ml, 24 hours. On the procedure:
as §2

Experiment [9] concerns eosinophils. As to conditions: oral treatment; histamine-induced guinea pig eye model; cited from earlier work.
In experiment [10] the test system is cAMP-phosphodiesterase. As to conditions: cited from earlier work.

Entries after “also recorded” stand apart in the source; their conditions may differ. Counter-ions that a name gives are not always drawn.

Sequence of PAF (P25105 whole entry): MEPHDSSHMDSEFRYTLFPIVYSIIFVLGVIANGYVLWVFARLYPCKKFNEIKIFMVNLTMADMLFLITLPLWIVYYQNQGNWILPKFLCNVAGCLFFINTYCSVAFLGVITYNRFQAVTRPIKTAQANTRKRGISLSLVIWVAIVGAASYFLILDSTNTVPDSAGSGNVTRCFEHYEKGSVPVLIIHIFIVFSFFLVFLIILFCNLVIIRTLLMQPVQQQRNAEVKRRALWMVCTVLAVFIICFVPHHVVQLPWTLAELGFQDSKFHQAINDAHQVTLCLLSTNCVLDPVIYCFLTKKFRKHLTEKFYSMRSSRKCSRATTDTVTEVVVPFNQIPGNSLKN

Regarding `CN1CCCC(n2nc(Cc3ccc(Cl)cc3)c3ccccc3c2=O)CC1` (centres unmarked) [AZE, azelastine], the “SI (CD3+CD25+)” value in experiment [1] (10^−5 M) is reported as 0.76±0.12. Moreover, the “decrease in SI for CD25+” value in [2] (10^−8 M) is 19%. Further, the “SI CD25” value in experiment [2] (10^−6 M) is 1.13 ± 0.15; in experiment [2] (10^−7 M), 0.88 ± 0.08; in [2] (10^−8 M), 0.81 ± 0.08. In addition, in experiment [3] (10^−8 M), the “decrease in SI for HLA-DR” value came to 45%. For the same compound, the figures for the “SI HLA-DR” value in experiment [3] (10^−6 M), in experiment [3] (10^−7 M) and in [3] (10^−8 M) were 0.61 ± 0.13, 0.56 ± 0.10 and 0.55 ± 0.09, respectively.

As to `COc1ccc(NC(=S)N2CCc3c(sc4c3C(c3ccccc3Cl)=NCc3nnc(C)n3-4)C2)cc1` [BN 50730], the “PAF antagonistic activity in vitro compared with BN52021” value in [4] is “several ten-folds more potent”.

On to `O=C(O)COCCN1CCN(C(c2ccccc2)c2ccc(Cl)cc2)CC1` (centres unmarked) [CTZ, cetirizine dihydrochloride], for which the “SI (CD3+CD25+)” value in [1] (10^−5 M) is 0.78±0.11. Further, the “decrease in SI for CD25+” value in experiment [2] (10^−8 M) came to 29%. Further, the “SI CD25” value in experiment [2] (10^−6 M) was determined as 0.93 ± 0.06; in [2] (10^−7 M), 0.88 ± 0.14; in experiment [2] (10^−8 M), 0.71 ± 0.12. Also, the “decrease in SI for HLA-DR” value in experiment [3] (10^−8 M) worked out at 53%. For the same compound, the “SI HLA-DR” value was determined as 0.70 ± 0.04 in experiment [3] (10^−6 M), 0.58 ± 0.11 in [3] (10^−7 M) and 0.47 ± 0.13 in experiment [3] (10^−8 M).

Take `CC1C(=O)OC2C(O)C34C5CC(C(C)(C)C)C36C(OC(=O)C6O)OC4(C(=O)O5)C12O` (centres unmarked) [GB, Ginkgolide B]: the “SI (CD3+CD25+)” value is on record as 0.77±0.12 in [1] (10^−6 M) and 0.86±0.07 in experiment [1] (10^−8 M). Besides, the entries for the “SI CD25” value in experiment [2] (10^−6 M), in [2] (10^−7 M) and in experiment [2] (10^−8 M) were 0.94 ± 0.12, 1.18 ± 0.21 and 0.81 ± 0.14, respectively. For the same compound, the “protection against OV-induced asthma” value in experiment [5] is “failed to protect; also recorded: failed to reduce the severity of asthma”. Also, the “decrease in SI for HLA-DR” value in experiment [3] (10^−8 M) is given as 39%. Further, the “SI HLA-DR” value in experiment [3] (10^−6 M) is on record as 0.72 ± 0.18; in experiment [3] (10^−7 M), 0.62 ± 0.18; in experiment [3] (10^−8 M), 0.61 ± 0.10. The “CD3+HLA-DR+ Stimulation Index” value in [6] (10^−6 M) is 0.66 ± 0.06; in experiment [6] (10^−7 M), 0.78 ± 0.20; in experiment [6] (10^−8 M), 0.73 ± 0.12. Further, in experiment [7], the TNF-alpha stood at 1689.21 pg/mL. Also, the “CD3+CD25+ Stimulation Index” value in [8] (10^−6 M) turned out to be 0.83 ± 1.0; in experiment [8] (10^−7 M), 0.92 ± 0.08; in experiment [8] (10^−8 M) it was 0.90 ± 0.07.

On to `COc1ccc(C2CNC(=O)C2)cc1OC1CCCC1` (centres unmarked) [rolipram], for which the infiltrate of eosinophils entry in experiment [9] was “significantly suppressed infiltrate”.

For the compound `COc1ccc(-c2cc(=O)c3c(O)cc(O)c(-c4cc(-c5cc(=O)c6c(O)cc(OC)cc6o5)ccc4OC)c3o2)cc1` [sciadopitysin], the “degree of enzyme inhibition (cAMP-phosphodiesterase), order” value in experiment [10] is given as “almost no capacity for inhibition”.
